This is an account of results in patent US8187822B2, “Methods to identify modulators” (Givaudan S.A., priority 2007, dated 2012).

The target in one assay is T1, TAS2R1 (Homo sapiens, UniProt Q9NYW7).
T1 construct: The full length gene of human TAS2R44 was amplified by polymerase chain reaction (PCR) using gene-specific primers that span the entire coding region; RSS tag (first 45 amino acids of rat somatostatin receptor subtype 3) (N); expressed in transfected cells
T1 sequence (Q9NYW7 1-299): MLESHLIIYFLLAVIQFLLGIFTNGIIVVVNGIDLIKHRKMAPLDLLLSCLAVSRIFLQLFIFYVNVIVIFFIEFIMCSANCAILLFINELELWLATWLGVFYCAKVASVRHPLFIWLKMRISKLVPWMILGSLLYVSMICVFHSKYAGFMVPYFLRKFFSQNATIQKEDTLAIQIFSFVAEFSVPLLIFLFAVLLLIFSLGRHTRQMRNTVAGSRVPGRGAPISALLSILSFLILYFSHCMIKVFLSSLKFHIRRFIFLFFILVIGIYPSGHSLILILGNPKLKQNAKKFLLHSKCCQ
The experiment in a line: Fluo-4 calcium assay, HEK293T cells stably expressing Gα16-gustducin44 and TAS2R1. Type of assay: cell-based. Here is the method:
Cell lines that stably expresses a SABR (TAS2R44, TAS2R1, TAS2R10) was generated by transfecting pcDNA3.1Zeo-SABR into HEK293T/Gα16-gustducin 44 cells (both formed as described in example 1). The host cell line HEK-293T is commercially available from the American Tissue Culture Collection (ATCC), ATCC®# CRL-11268.
TAS2R1 expressing cells were identified by their response to 0.5 mM chloramphenicol (a known TAS2R1 agonist as described in WO 2006/053771) in addition to sucralose, which was determined via automated fluorimetric imaging on the FLIPR-Tetra instrumentation (Molecular Devices) using the methods described in Example 3. One clone was selected resulting in the HEK293T/Gα16-gustducin 44/TAS2R1 cell line.
At day 0, the HEK293T cell line expressing Gα16-gustducin44 and a TAS2R bitter taste receptor formed as described in examples 2b or 2c was seeded in antibiotic-free growth medium (standard DMEM with 10% (v/v) heat-inactivated fetal bovine serum, 2 mM L-glutamine[…]) into black wall/clear bottom 96-well plates, coated with poly(ethylenimine) (0.005% v/v) at a concentration of 15,000 cells per well and incubated for 48 hours in humidified atmosphere (37° C., 5% CO2).
At the time of the assay, the growth medium was discarded and the cells were in humidified atmosphere (37° C., 5% CO2) for 1 hour with 50 μl of loading buffer consisting of 1.5 μM Fluo-4 AM and […] probenicid (Sigma-Aldrich, St. Louis, Mo., US) in DMEM.
Afterwards, the 96-well plate was washed 5 times with 100 μl of assay buffer (130 mM NaCl, 5 mM KCl, 10 mM HEPES, 2 mM CaCl2, and 5 mM dextrose, pH 7.4) per well, using an automated plate washer (BioTek). The plate was further incubated for 30 minutes at room temperature in the dark to allow for complete de-esterification of the Fluo-4. Afterwards the plate was washed 5 times with 100 μl of assay buffer per well, and reconstituted with 100 μl of assay buffer per well.
For assay reading, the plate was placed in a Fluorometric Imaging Plate Reader (FLIPR) (FLIPR-TETRA™, Molecular Devices, Sunnyvale, Calif., US), and receptor activation was initiated by addition of 100 μl of a twofold concentrated agonist stock solution (to give the desired agonist end concentration when added to the 100 microliter assay buffer volume), which was prepared in assay buffer.
Fluorescence was continuously monitored for 20 seconds to give a signal baseline (averaged to give F0) prior to agonist addition and for 120 seconds after agonist addition. The change in signal divided by F0 gives ΔF/F0 indicated in the table, with ΔF being the maximum signal occurring within the 120 seconds minus the minimum signal (occurring within the 120 seconds after agonist addition.
All data was collected from at least two independent experiments each carried out in triplicate.
The obtained calcium signals were corrected for the response of cells expressing only the G Protein α subunit (Gα16-gustducin44) and normalized to the fluorescence of cells prior to the stimulus using ΔF/F0 (Fmax−Fmin/F0).
The intracellular calcium response following addition of sucralose was determined in HEK293T cell line stably expressing Gα16-gustducin44 and TAS2R1 formed as described in example 2c.

The next assay has as its target T2, TAS2R10 (Homo sapiens, UniProt Q9NYW0).
T2 construct: The full length gene of human TAS2R44 was amplified by polymerase chain reaction (PCR) using gene-specific primers that span the entire coding region; RSS tag (first 45 amino acids of rat somatostatin receptor subtype 3) (N); expressed in transfected cells
T2 sequence (Q9NYW0 1-307): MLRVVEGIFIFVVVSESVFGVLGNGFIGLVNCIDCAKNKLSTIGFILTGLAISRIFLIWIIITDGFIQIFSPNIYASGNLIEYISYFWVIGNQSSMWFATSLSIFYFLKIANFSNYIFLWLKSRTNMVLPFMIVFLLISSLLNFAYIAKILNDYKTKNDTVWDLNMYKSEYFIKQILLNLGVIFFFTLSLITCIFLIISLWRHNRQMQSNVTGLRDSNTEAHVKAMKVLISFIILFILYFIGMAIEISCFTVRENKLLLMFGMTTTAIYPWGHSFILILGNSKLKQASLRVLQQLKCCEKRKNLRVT
Put plainly: Fluo-4 calcium assay, HEK293T cells stably expressing Gα16-gustducin44 and TAS2R10. Type of assay: cell-based.

With `OC[C@H]1O[C@H](O[C@]2(CCl)O[C@H](CCl)[C@@H](O)[C@@H]2O)[C@H](O)[C@@H](O)[C@H]1Cl` [Sucralose, sucralose], the “calcium signaling in TAS2R1 cells, in words” value at TAS2R1 is recorded as “significant concentration-dependent increase in calcium signaling”. The “TAS2R1 ΔF/F0” value on TAS2R1 (sucralose 0.3906 mM) amounted to 0.052; on TAS2R1 (sucralose 0.7813 mM) it was 0.050; on TAS2R1 (sucralose 1.5625 mM), 0.047; at TAS2R1 (sucralose 3.1250 mM) it was 0.059; on TAS2R1 (sucralose 6.2500 mM), 0.061; on TAS2R1 (sucralose 12.5000 mM) it was 0.072. The “TAS2R1 ΔF/F0” value on TAS2R1 (sucralose 25.0000 mM) is 0.104; at TAS2R1 (sucralose 50.0000 mM), 0.197; at TAS2R1 (sucralose 100.0000 mM) it was 0.518. At TAS2R10, the “calcium signaling in TAS2R10 cells, in words” value is given as “significant concentration-dependent increase in calcium signaling”. The “TAS2R10 ΔF/F0” value was 0.050 on TAS2R10 (sucralose 0.3906 mM); 0.050 on TAS2R10 (sucralose 0.7813 mM); 0.047 at TAS2R10 (sucralose 1.5625 mM); 0.053 on TAS2R10 (sucralose 3.1250 mM); 0.053 at TAS2R10 (sucralose 6.2500 mM); 0.059 on TAS2R10 (sucralose 12.5000 mM). Further, the “TAS2R10 ΔF/F0” value on TAS2R10 (sucralose 25.0000 mM) is 0.087; at TAS2R10 (sucralose 50.0000 mM), 0.212; at TAS2R10 (sucralose 100.0000 mM) it was 0.437.
